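Assay format: 96-well plates, 48-hour exposure. The concentration for 50% growth inhibition is given as GI50.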 The source made the active and inactive calls. Rule as the data show it: active = GI50 up to about 1.1 µM and inactive = higher.
How the values were obtained:
Assay in all cases: growth of human tumour cells (NCI), 48 h
[1] = system: 786-0
[2] = system: A549
[3] = system: BT-549
[4] = system: CCRF-CEM
[5] = system: DLD-1
[6] = system: DMS-273
[7] = system: DU-145
[8] = system: EKVX
[9] = system: HCT-15
[10] = system: HT-29
[11] = system: KM12
[12] = system: MCF7
[13] = system: NCI-H460
[14] = system: OVCAR-3
[15] = system: RPMI-8226
[16] = system: SF-539
[17] = system: SR
[18] = system: SW-620
[19] = system: TK-10
[20] = system: UACC-257

Measured: GI50

CCCCCCCCCCNC1CC(OC2CC(O)(C(O)CO)Cc3c(O)c4c(c(O)c32)C(=O)c2c(OC)cccc2C4=O)OC(C)C1O (configuration not stated)
active: [4] 0.388 µM | [12] 1.01 µM | [13] 0.601 µM | [15] 0.839 µM | [17] 0.408 µM | [18] 0.791 µM
inactive: [1] 1.84 µM | [2] 1.58 µM | [3] 1.7 µM | [5] 1.13 µM | [6] 1.79 µM | [7] 1.79 µM | [8] 1.78 µM | [10] 1.33 µM | [11] 1.5 µM | [14] 1.69 µM | [16] 1.77 µM | [19] 4.44 µM | [20] 1.72 µM
1.56 µM: [9]

COC(=O)C(C(=O)C(=O)Nc1c(Cl)cc([N+](=O)[O-])cc1Cl)c1csc(-n2nc(C3=CCCCC3)cc2-c2ccccc2)n1 (configuration not stated)
36.2 µM: [9]
inactive: [1] 74 µM | [2] 64.7 µM | [4] 73.5 µM | [5] 28.8 µM | [6] 74.5 µM | [8] 8.47 µM | [10] 25.9 µM | [11] 45 µM | [13] 82.8 µM | [14] 59 µM | [15] 27.9 µM | [16] 34.8 µM | [17] 22.5 µM | [18] 71 µM | [19] 64.9 µM | [20] 46.6 µM

COc1c2ccoc2c(S(=O)(=O)Nc2ccc(Cl)cc2)c2oc(C)cc(=O)c12
> 100 µM: [9]
inactive: [2] > 100 µM | [4] > 100 µM | [5] > 100 µM | [6] > 100 µM | [8] > 100 µM | [10] > 100 µM | [11] > 100 µM | [12] 51.9 µM | [13] > 100 µM | [14] > 100 µM | [15] > 100 µM | [16] 31.3 µM | [18] > 100 µM | [20] > 100 µM
